The text below walks through data of article PMC4160109 (Clinical cancer research : an official journal of the …, 2014).

In one series the test system is advanced solid tumors. Conditions: cited from earlier work.
Another series has as its system patients. Conditions: cited from earlier work.
Series [1] is described as follows: Plasma PK of oral rigosertib in phase I patients. It is filed as in vivo, human. Conditions: for CI7F: plasma, mean ± SD.
A short description of series [2]: Urine PK of oral rigosertib in phase I patients. The format is in vivo, human.
Series [3] has as its system advanced solid malignancies. The series is described as follows: Phase I antitumor activity. Conditions: for median time on study: all patients. The format is in vivo, human.
In a further series the test system is dogs. The series is described as follows: Preclinical severely toxic dose in 10% of animals, dogs. The format is in vivo, dog.
In another series the test system is rats. The series is described as follows: Preclinical severely toxic dose in 10% of animals, rats. It is filed as in vivo, rat. Conditions: twice daily.
In series [4] the test system is patients with advanced solid malignancies. Conditions: in vivo.

On to `CC[C@@H]1C(=O)N(C)c2cnc(Nc3ccc(C(=O)NC4CCN(C)CC4)cc3OC)nc2N1C1CCCC1` [BI-2536], for which, in the series with advanced solid tumors, the “phase I CBR” value was 32%, the “phase I PR” value is 0% and the “phase I stable disease” value was 32%.

On to `Nc1cc(C(F)(F)F)c(-c2cc(N3CCOCC3)nc(N3CCOCC3)n2)cn1` [BKM120], for which the “phase I RR” value in the series on advanced solid tumors is listed as 2.8%.

For `C=CCN(/C=C1/C(=O)O[C@H](COC)[C@@]2(C)C1=C(O)C(=O)C1=C2[C@H](OC(C)=O)C[C@]2(C)C(=O)CC[C@@H]12)CC=C` [PX-866], the “phase I RR” value in the series on advanced solid tumors is 0%. In the series with patients, the hyperglycemia result is recorded as “do not cause hyperglycemia”.

As for `COc1ccc(Cl)c(Nc2nc3ccccc3nc2NS(=O)(=O)c2cccc(NC(=O)C(C)(C)N)c2)c1` [XL147], the hyperglycemia entry in the series on patients is “do not cause hyperglycemia”.

For `COc1cc(OC)c(/C=C/S(=O)(=O)Cc2ccc(OC)c(NCC(=O)O)c2)c(OC)c1` [rigosertib, sodium (E)-2-{2-methoxy-5-[(2′,4′ ,6′-trimethoxys-tyrylsulfonyl)methyl]phenylamino}acetate], the “plasma pharmacokinetics, dose dependence” value in series [1] (oral 70-700 mg twice daily) was “linear and dose proportional”. Moreover, the CI7F in series [1] (70 mg twice daily oral, Day 1 cycle 1, n = 3) is 71.54 ±42.87 I7h; in series [1] (140 mg twice daily oral, Day 1 cycle 1, n = 4) it was 171.29 ± 155.74 I7h; in series [1] (140 mg twice daily oral, Day 21 cycle 1, n = 4) it was 55.64 ± 36.62 I7h; in series [1] (280 mg twice daily oral, Day 1 cycle 1, n = 5) it was 122.84 ± 123.67 I7h; in series [1] (280 mg twice daily oral, Day 21 cycle 1, n = 3), 127.45 ±66.13 I7h; in series [1] (560 mg twice daily oral, Day 1 cycle 1, n = 32), 93.28 ± 58.24 I7h. Moreover, the CI7F in series [1] (560 mg twice daily oral, Day 21 cycle 1, n = 24) amounted to 116.33 ±56.32 I7h; in series [1] (700 mg twice daily oral, Day 1 cycle 1, n = 7) it was 64.62 ± 34.70 I7h; in series [1] (700 mg twice daily oral, Day 21 cycle 1, n = 2), 149.9 ±51.79 I7h. The 24-hour urine excretion is 18.7 mg in series [2] (nonsymptomatic patients, mean (SD 2.8)) and 16.6 mg in series [2] (patients with urinary symptoms, mean (SD 7.9)). The “overall response rate (RR)” value in series [3] (2/46 evaluable patients, all dose levels) is given as 4.3%. Also, the “duration of stable disease” value in series [3] (8 patients with stable disease for 12 or more weeks, range) is 12–36 weeks. Further, the “clinical benefit rate (CBR = CR + PR + stable disease)” value in series [3] (10/46 evaluable patients, stable disease ≥ 12 weeks) worked out at 21.7%. Further, the “patients with stable disease for ≥ 12 weeks” value in series [3] (all dose levels) is given as 8. For the same compound, the “median time on study” value was 2 cycles in series [3] and 6 weeks in series [3] (range, 1–101+). Also, in series [3] (one patient, platinum-refractory HPV-positive HNSCC, 560 mg twice daily), the best response result is recorded as “partial response”. The time on study in series [3] (patient with CR, HPV-negative HNSCC, 280 mg twice daily) was ≥ 101 weeks; in series [3] (patient with PR, HPV-positive HNSCC, 560 mg twice daily) it was 50 weeks. For the same compound, in series [3] (patient with PR, HPV-positive HNSCC, 560 mg twice daily, cycle 5), the “tumor size decrease from its maximum” value is 40%. The “human equivalent of severely toxic dose in 10% of dogs and rats” value worked out at 12.2 mg/kg with dogs (60 kg human) and 73 mg with dogs (60 kg human with a safety factor of 10). The “severely toxic dose in 10% of animals” value worked out at 75 mg/kg with dogs (dogs, twice daily) and 75 mg/kg in the series on rats. In series [4] (human), the “Fatigue, treatment-related AE (patients)” value is given as 1. Moreover, in series [4] (human), the “Hematuria, treatment-related AE (patients)” value was 2. In addition, the “Pelvic pain, treatment-related AE (patients)” value in series [4] (human) came out at 1. Moreover, in series [4] (human), the “median time to onset of urinary symptoms” value was 4 weeks. Also, in series [4] (human), the “patients experiencing serious AEs” value is recorded as 13. Moreover, in series [4] (human), the “patients with doses held for toxicity” value is listed as 14. Moreover, the “patients with doses reduced for toxicity” value in series [4] (human) came out at 13. Besides, in series [4] (human), the “patients with grade 2 or 3 urinary symptoms” value stood at 15. For the same compound, the “patients with serious AE considered possibly drug-related” value in series [4] (human) is recorded as 1. In addition, the “time to resolution of urinary symptoms after drug discontinuation” value in series [4] (human) is recorded as ≤ 14 days. For the same compound, the “Patients with a DLT” value in series [4] (human, 21 days) was 2. Moreover, the “patients with a DLT” value in series [4] (human, 21 days) is 1. For the same compound, in series [4] (human, po, 21 days), the “recommended phase II dose (RP2D)” value is listed as 560 mg. Also, the “patients with grade 3 nonhematologic toxicity” value in series [4] is “Seven”. The “tolerability of dose level” value in series [4] was “considered intolerable”. Moreover, the Dose-limiting toxicities result in series [4] (po) was “hematuria and dysuria”.
